Data as given in PMC5386833 (Oncogene, 2016).

Target: BRCA1/BARD1 (Homo sapiens, UniProt P38398+Q99728)
Experiment: ReBiL luminescence protein interaction assay, BRCA1/BARD1 negative control
Details: dosing above 10 μM, 10% serum

Chain of BRCA1/BARD1 (P38398 whole entry, species assumed): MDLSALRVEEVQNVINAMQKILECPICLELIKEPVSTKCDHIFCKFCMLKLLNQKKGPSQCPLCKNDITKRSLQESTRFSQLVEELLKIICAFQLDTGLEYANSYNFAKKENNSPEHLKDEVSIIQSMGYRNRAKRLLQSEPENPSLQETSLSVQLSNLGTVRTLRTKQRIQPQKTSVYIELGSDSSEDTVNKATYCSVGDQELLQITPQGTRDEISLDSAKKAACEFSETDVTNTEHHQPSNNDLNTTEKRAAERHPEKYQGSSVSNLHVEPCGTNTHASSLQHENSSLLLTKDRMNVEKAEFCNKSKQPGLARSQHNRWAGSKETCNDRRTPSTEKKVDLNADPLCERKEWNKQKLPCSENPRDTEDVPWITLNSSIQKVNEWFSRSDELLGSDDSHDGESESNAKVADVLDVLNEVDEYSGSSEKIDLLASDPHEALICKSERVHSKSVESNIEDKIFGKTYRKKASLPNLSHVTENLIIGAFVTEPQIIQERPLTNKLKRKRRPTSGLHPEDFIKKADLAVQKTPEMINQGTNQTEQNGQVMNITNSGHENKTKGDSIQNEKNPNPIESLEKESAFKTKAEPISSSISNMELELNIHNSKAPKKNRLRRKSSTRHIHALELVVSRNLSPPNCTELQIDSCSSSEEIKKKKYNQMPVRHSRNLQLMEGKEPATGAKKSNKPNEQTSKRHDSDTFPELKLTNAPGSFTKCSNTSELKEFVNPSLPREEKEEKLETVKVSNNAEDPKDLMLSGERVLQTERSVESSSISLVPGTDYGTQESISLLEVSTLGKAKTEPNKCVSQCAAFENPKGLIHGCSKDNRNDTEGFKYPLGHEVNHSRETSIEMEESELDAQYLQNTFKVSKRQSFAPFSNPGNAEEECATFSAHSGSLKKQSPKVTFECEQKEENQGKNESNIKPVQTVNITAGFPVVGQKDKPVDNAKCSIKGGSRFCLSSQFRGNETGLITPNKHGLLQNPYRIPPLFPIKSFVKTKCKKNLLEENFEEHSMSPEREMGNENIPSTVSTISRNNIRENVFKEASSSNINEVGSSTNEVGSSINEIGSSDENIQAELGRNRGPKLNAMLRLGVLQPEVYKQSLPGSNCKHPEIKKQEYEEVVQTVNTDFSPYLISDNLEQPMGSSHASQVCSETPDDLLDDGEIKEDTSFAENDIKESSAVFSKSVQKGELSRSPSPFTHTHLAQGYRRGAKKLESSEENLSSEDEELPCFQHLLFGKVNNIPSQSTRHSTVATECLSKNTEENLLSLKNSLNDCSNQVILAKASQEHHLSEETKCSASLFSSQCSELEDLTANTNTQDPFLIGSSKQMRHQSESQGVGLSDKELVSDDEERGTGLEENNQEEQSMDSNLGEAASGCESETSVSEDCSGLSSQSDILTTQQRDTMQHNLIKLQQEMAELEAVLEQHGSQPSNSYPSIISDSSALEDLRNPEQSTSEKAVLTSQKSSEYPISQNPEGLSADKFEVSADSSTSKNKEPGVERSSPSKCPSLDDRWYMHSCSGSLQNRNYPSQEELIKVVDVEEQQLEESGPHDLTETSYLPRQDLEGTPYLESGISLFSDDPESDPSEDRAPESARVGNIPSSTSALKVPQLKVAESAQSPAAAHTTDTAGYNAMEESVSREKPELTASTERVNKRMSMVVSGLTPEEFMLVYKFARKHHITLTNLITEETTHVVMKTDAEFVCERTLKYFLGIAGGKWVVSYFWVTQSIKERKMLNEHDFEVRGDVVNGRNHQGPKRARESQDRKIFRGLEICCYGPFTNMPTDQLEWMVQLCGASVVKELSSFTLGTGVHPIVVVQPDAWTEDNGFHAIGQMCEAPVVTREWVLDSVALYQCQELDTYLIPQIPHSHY
Chain of BRCA1/BARD1 (Q99728 whole entry, species assumed): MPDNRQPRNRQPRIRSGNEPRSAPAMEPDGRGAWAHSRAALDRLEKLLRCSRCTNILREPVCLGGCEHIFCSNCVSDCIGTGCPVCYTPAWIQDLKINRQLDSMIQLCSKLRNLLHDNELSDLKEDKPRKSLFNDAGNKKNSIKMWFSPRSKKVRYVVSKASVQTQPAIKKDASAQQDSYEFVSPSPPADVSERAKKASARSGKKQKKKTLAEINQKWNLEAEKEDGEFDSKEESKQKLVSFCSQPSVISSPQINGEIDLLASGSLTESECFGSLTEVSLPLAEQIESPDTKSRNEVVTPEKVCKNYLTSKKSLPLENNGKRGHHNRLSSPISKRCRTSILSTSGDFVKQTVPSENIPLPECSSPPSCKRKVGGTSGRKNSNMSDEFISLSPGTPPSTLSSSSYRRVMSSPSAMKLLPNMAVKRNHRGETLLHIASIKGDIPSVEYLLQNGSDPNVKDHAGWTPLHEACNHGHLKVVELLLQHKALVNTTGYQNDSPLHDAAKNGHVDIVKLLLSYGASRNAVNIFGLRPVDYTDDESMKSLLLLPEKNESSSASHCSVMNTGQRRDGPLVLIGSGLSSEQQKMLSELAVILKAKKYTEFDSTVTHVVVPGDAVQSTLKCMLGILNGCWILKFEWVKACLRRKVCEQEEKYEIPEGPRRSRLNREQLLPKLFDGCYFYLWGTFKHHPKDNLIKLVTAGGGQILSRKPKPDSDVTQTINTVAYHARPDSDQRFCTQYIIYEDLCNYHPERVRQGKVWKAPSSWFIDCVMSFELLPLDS

- ReBiL signal suppression in BRCA1/BARD1 cell line above 10 μM: nonspecific activity
Compound: COc1ccc(C2=N[C@@H](c3ccc(Cl)cc3)[C@@H](c3ccc(Cl)cc3)N2C(=O)N2CCNC(=O)C2)c(OC(C)C)c1 [Nutlin-3a]
